Data on 16 compounds can be found in patent US20250099407A1, “2-AMINO BENZOPHENONE DERIVATIVES FOR TARGETED FERROPTOSIS INDUCTION IN CANCER THERAPY” (INDIAN INSTITUTE OF TECHNOLOGY KANPUR, priority 2023, published 2025).

As usually defined, the pEC50 is the EC50 on a negative log10 scale, so that one unit is a factor of ten.

pEC50: −log10 of the molar value.

The subject of one experiment is Huh-7 cells. Put plainly: Cell viability, luminescence-based CellTiter-Glo assay, Huh-7 cells. Conditions: Homo sapiens, Huh-7, Huh-7 cells, antiproliferative activity; read-out: EC50 in Huh-7 cells. The procedure: The viability of Huh-7 cells was recorded using a luminescence-based CellTiter-Glo® assay. The screening concentration of the molecules were 10 μM with or without Fer-1 (10 μM) in DMEM media (>0.1% DMSO as control).
Ferroptosis is a unique form of cell death mechanism mediated by the accumulation of lipid peroxides in cells which is distinct from healthy cells' apoptosis, a programmed […] route. We aimed to exploit the induction of ferroptosis in cancer cells using covalent small molecules as a potential strategy for cancer therapeutic development. […] We used various amide bond formation chemistry to construct the library members and these molecules are well characterized by various spectroscopic and mass spectrometry techniques. Once confirmed, these thiol reactive library members were screened in a cancer cell viability assay in combination with ferrostatin-1 (Fer-1), a ferroptosis inhibitor as depicted in FIG. 11. […] We have screened a total of ˜50 electrophilic small molecules to prevent the proliferation of hepatocellular carcinoma (Huh-7 cells) in combination with and without Fer-1. From our initial screening, we identified haloacetamides of 2-aminoalkylbenzophenone as potential ferroptosis inducers as depicted in FIG. 11.
The viability of screened cancer cells was recorded using a luminescence-based CellTiter-Glo® assay for the ATP quantification. The screening concentration of the molecule ranged from 100/10 μM to 45/4.5 nM with an 8-point-3-fold dilution series in DMEM media (>0.1% DMSO as control). Each experiment was conducted in more than two biological replicates with three technical replicates. The error bar is a representation of standard deviation among the technical replicates.
The viability of screened cancer cells was recorded using a luminescence-based CellTiter-Glo® assay for the ATP quantification. The screening concentration of IITK3002 ranged from 10 μM to 4.5 nM with an 8-point-3-fold dilution series in DMEM media (>0.1% DMSO as control). Each experiment was conducted in more than two biological replicates with three technical replicates. The error bar is a representation of standard deviation among the technical replicates. […]
a. Electrophilic Warhead Optimization: Once we identified 2-benzoylphenyl-a-haloacetamide as the lead scaffold, we have investigated the structure-activity-relationship analysis to precisely capture the effect of various chemical handles of the scaffold and use the knowledge to improve the overall potency and selectivity of this molecule to prevent cancer cell proliferation. First, we changed the haloacetamide electrophilic unit with various other electrophiles with a characteristic high, moderate, and weak reactivity with thiols when compared to chloroacetamide. Therefore, we opted vinylsulfonamide (highly reactivity), acrylamide (moderate reactivity), and phenoxyacetamides (weak reactivity warheads) for incorporation in the place of haloacetamide warhead of the top hit scaffold. Once synthesized, these molecules were evaluated to assess their antiproliferative potency against Huh-7 cells (Table 2). As expected, the introduction of weakly reactive electrophilic warheads, phenoxyactamides, completely lost the activity against Huh-7 cells. […] Perhaps, the secondary interactions of the electrophilic warhead with the target proteins might play additional roles. Therefore, we shifted our focus to optimize the rest of the core scaffold for further SAR analysis. b. Role of N-Substitutions: Next, we synthesized the NH-derivative of haloacetamides to capture the importance of N-alkylation on the activity of our hit molecule. […] Perhaps the hydrogen bonding induced planarity around the warhead influences the molecules' weakened potency. Conversely, the additional flexibility in the lead molecule (tertiary amide) might contribute to the strong antiproliferative activity of the hit molecule. […]
In general terms: Cellular ATP, detected with luciferase, serves as a proxy for viable cell number.
For the compound `CN(C(=O)CCl)c1ccccc1C(=O)c1ccc(-c2ccccc2)cc1` [IITK3055, N-(2-([1,1′-biphenyl]-4-carbonyl)phenyl)-2-chloro-N-methylacetamide], the pEC50 is 8.70.

Still in this experiment, the particulars now being: Homo sapiens, Huh-7, Huh-7 cells, cell viability; read-out: EC50 Huh-7.
Regarding `CN(C(=O)CCl)c1ccccc1C(=O)c1ccc(-c2cccc(Oc3ccccc3)c2)cc1` [IITK3062, 2-chloro-N-methyl-N-(2-(3′-phenoxy-[1,1′-biphenyl]-4-carbonyl)phenyl)acetamide], the negative logarithm of the EC50 (pEC50) was 7.44. Same read-out and setting: next, `CN(C(=O)CCl)c1ccc([N+](=O)[O-])cc1C(=O)c1ccccc1` [IITK3073, N-(2-benzoyl-4-nitrophenyl)-2-chloro-N-methylacetamide]: less than 4.70; `C#CCN(C(=O)CBr)c1ccccc1C(=O)c1ccc(-c2ccccc2)cc1` [IITK3071, N-(2-([1,1′-biphenyl]-4-carbonyl)phenyl)-2-bromo-N-(prop-2-yn-1-yl)acetamide]: more than 7.00. Still for that read-out and setting: next, `C#CCN(C(=O)COc1c(F)c(F)c(F)c(F)c1F)c1ccccc1C(=O)c1ccccc1` [IITK3031, N-(2-benzoylphenyl)-2-(perfluorophenoxy)-N-(prop-2-yn-1-yl)acetamide]: less than 4.70; `C#CCN(C(=O)CCl)c1ccccc1C(=O)c1ccc(-c2ccccc2)cc1` [IITK3072, N-(2-([1,1′-biphenyl]-4-carbonyl)phenyl)-2-chloro-N-(prop-2-yn-1-yl)acetamide]: less than 6.86; `COc1ccc(-c2ccc(C(=O)c3ccccc3N(C)C(=O)CBr)cc2)cc1` [IITK3065, 2-bromo-N-(2-(4′-methoxy-[1,1′-biphenyl]-4-carbonyl)phenyl)-N-methylacetamide]: 7.80. On the same count and under the same terms, in the case of `CN(C(=O)CCl)c1ccccc1C(=O)c1ccc(-c2ccc(C#N)cc2)cc1` [IITK3060, 2-chloro-N-(2-(4′-cyano-[1,1′-biphenyl]-4-carbonyl)phenyl)-N-methylacetamide] it was 7.59; in that of `Cc1ccc(-c2ccc(C(=O)c3ccccc3N(C)C(=O)CBr)cc2)cc1` [IITK3057, 2-bromo-N-methyl-N-(2-(4′-methyl-[1,1′-biphenyl]-4-carbonyl)phenyl)acetamide], 7.74; in that of `CN(C(=O)CBr)c1ccccc1C(=O)c1ccc(-c2cccc(Oc3ccccc3)c2)cc1` [IITK3063, 2-bromo-N-methyl-N-(2-(3′-phenoxy-[1,1′-biphenyl]-4-carbonyl)phenyl)acetamide], 7.61.

For the compound `C=CCN(C(=O)COc1ccc([N+](=O)[O-])cc1)c1ccccc1C(=O)c1ccccc1` [IITK3025, N-allyl-N-(2-benzoylphenyl)-2-(4-nitrophenoxy)acetamide], the pEC50 was less than 4.00. As to `CN(C(=O)CBr)c1ccccc1C(=O)c1ccc(-c2ccccc2)cc1` [IITK3056, N-(2-([1,1′-biphenyl]-4-carbonyl)phenyl)-2-bromo-N-methylacetamide], the pEC50 is 7.89.

In the case of `CN(C(=O)CBr)c1ccccc1C(=O)c1ccc(-c2ccc(C#N)cc2)cc1` [IITK3061, 2-bromo-N-(2-(4′-cyano-[1,1′-biphenyl]-4-carbonyl)phenyl)-N-methylacetamide], the pEC50 was 5.32.

For the compound `CN(C(=O)CCl)c1ccccc1C(=O)c1ccc(-c2ccccc2)cc1` [IITK3055, N-(2-([1,1′-biphenyl]-4-carbonyl)phenyl)-2-chloro-N-methylacetamide], the pEC50 was 8.70. Take `CN(C(=O)CCl)c1ccccc1C(=O)c1ccc(-c2cccc([N+](=O)[O-])c2)cc1` [IITK3068, 2-chloro-N-methyl-N-(2-(3′-nitro-[1,1′-biphenyl]-4-carbonyl)phenyl)acetamide]: the pEC50 was 8.51. Still for that read-out and setting: in the case of `CN(C(=O)CBr)c1ccccc1C(=O)c1ccc(-c2ccc(C=O)cc2)cc1` [IITK3059, 2-bromo-N-(2-(4′-formyl-[1,1′-biphenyl]-4-carbonyl)phenyl)-N-methylacetamide] it was 7.10; in that of `CN(C(=O)CBr)c1ccccc1C(=O)c1ccc(-c2ccc(F)cc2F)cc1` [IITK3067, 2-bromo-N-(2-(2′,4′-difluoro-[1,1′-biphenyl]-4-carbonyl)phenyl)-N-methylacetamide], 7.92.
